What follows are compounds tested against T1, EBP (Homo sapiens, UniProt Q15125) (assay: EBP Functional Assay (EBP immunoaffinity LC-MS assay)). Details: HEK293T cells as source of EBP enzyme; substrate zymosterol-d5, 37° C. for 4 h; percent conversion to dehydrolathosterol-d5 by LC-APCI MRM MS.
T1 construct: HEK293T cells were utilized as the source of EBP enzyme; endogenous in cells; host or cells: HEK293T
Assay type: biochemical
Description: The EBP immunoaffinity (IA) LC-MS assay measures the potency of small molecule inhibitors of EBP by quantifying their concentration-dependent changes in the enzyme's substrate and product using liquid chromatography atmospheric pressure chemical ionization multiple reaction monitoring mass spectrometry (LC-APCI MRM MS). HEK293T cells were utilized as the source of EBP enzyme. The enzyme was incubated with the small molecule inhibitors at variable concentrations for 30 min. Deuterated form of EBP substrate, zymosterol-d5 (Avanti Polar Lipids, Cat #700068P-1 mg), was then added and the plate was incubated at 37° C. for 4 h. Finally, the sterol isomers were extracted and injected to LC-APCI MRM MS. MRM transition used for the quantification for both zymosterol and […] (substrate and product of EBP enzymatic reaction, respectively) is 372.3-203.2, CE 30 and DP 80 in positive ion mode. Percent conversion of the zymosterol-d5 to dehydrolathosterol-d5 was used to derive IC50 curves. Tasin-1 (1′-[(4-Methoxyphenyl)sulfonyl]-4-methyl-1,4′-bipiperidine, CAS 792927-06-1) was used as the reference small molecule inhibitor.
Percent conversion versus the compound concentration data were fit to the following 4-parameter logistic model to generate IC50 curves: […]

T1 sequence (Q15125 whole entry): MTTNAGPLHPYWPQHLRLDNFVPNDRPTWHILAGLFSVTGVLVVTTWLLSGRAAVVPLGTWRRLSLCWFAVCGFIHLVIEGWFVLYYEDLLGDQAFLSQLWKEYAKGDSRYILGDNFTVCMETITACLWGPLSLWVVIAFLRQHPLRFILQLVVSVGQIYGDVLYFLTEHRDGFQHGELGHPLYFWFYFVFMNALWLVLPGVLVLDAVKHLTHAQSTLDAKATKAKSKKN

Compound | IC50 [nM]
Cc1ccc(S(=O)(=O)N2CCC3(CCC(N4CC5(COC5)C4)C3)CC2)cc1C#N (centres unmarked) [Example 128, 5-((2-(2-oxa-6-azaspiro[3.3]heptan-6-yl)-8-azaspiro[4.5]decan-8-yl)sulfonyl)-2-methylbenzonitrile] | < 100
Cc1cc(S(=O)(=O)N2CCC3(CC2)CC(N2CCC4(CCOC4)C2)CO3)n(C)n1 (centres unmarked) [Example 29, 8-((1,3-Dimethyl-1H-pyrazol-5-yl)sulfonyl)-3-(2-oxa-7-azaspiro[4.4]nonan-7-yl)-1-oxa-8-azaspiro[4.5]decane] | 250 to 1500
N#Cc1ccc(S(=O)(=O)N2CCC3(CC2)CC(N2CC4(COC4)C2)CO3)c(Cl)c1 (centres unmarked) [Example 9] | 250 to 1500
Cc1cc(S(=O)(=O)N2CCC3(CCC(N4CCOCC4)C3)CC2)n(C)n1 (centres unmarked) [Example 21, 4-(8-((1,3-Dimethyl-1H-pyrazol-5-yl)sulfonyl)-8-azaspiro[4.5]decan-2-yl)morpholine] | 100 to 250
Cn1nc(C(F)(F)F)cc1S(=O)(=O)N1CCC2(CC1)CC(N1CCOCC1)CO2 (single isomer, unassigned) [Example 7, (R)- or (S)-8-((1-methyl-3-(trifluoromethyl)-1H-pyrazol-5-yl)sulfonyl)-3-morpholino-1-oxa-8-azaspiro[4.5]decane] | 250 to 1500
COCCN(C)C1COC2(CCN(S(=O)(=O)c3cc(C)cnc3OC)CC2)C1 (centres unmarked) [Example 67, 8-((2-Methoxy-5-methylpyridin-3-yl)sulfonyl)-N-(2-methoxyethyl)-N-methyl-1-oxa-8-azaspiro[4.5]decan-3-amine] | 250 to 1500
Cc1cc(C)c(S(=O)(=O)N2CCC3(CC2)CC(N2CCC4(CCOC4)C2)CO3)cn1 (centres unmarked) [Example 28, 8-((4,6-Dimethylpyridin-3-yl)sulfonyl)-3-(2-oxa-7-azaspiro[4.4]nonan-7-yl)-1-oxa-8-azaspiro[4.5]decane] | 250 to 1500
O=S(=O)(c1cnc2ccccc2c1)N1CCC2(CCC(N3CC4(COC4)C3)C2)CC1 (centres unmarked) [Example 103] | < 100
COc1nccc(S(=O)(=O)N2CCC3(CCC(N4CCOCC4)C3)CC2)c1F (centres unmarked) [Example 33, 4-(8-((3-Fluoro-2-methoxypyridin-4-yl)sulfonyl)-8-azaspiro[4.5]decan-2-yl)morpholine] | < 100
COc1ccc(S(=O)(=O)N2CCC3(CCC(N4CC5(COC5)C4)C3)CC2)c(F)c1 (centres unmarked) [Example 129, 6-(8-((2-fluoro-4-methoxyphenyl)sulfonyl)-8-azaspiro[4.5]decan-2-yl)-2-oxa-6-azaspiro[3.3]heptane] | < 100
COc1ccc(S(=O)(=O)N2CCC3(CC2)CC(N(C)C2CC4(COC4)C2)CO3)c(F)c1 (centres unmarked) [Example 136, 8-((2-fluoro-4-methoxyphenyl)sulfonyl)-N-methyl-N-(2-oxaspiro[3.3]heptan-6-yl)-1-oxa-8-azaspiro[4.5]decan-3-amine] | 100 to 250
N#Cc1cc(F)cc(S(=O)(=O)N2CCC3(CC2)CC(NCC2CCOCC2)CO3)c1 (centres unmarked) [Example 98, 3-fluoro-5-((3-(((tetrahydro-2H-pyran-4-yl)methyl)amino)-1-oxa-8-azaspiro[4.5]decan-8-yl)sulfonyl)benzonitrile] | 250 to 1500
O=S(=O)(c1ccc(OC(F)F)cc1)N1CCC2(CC[C@@H](N3C[C@@H]4C[C@H]3CO4)C2)CC1 (single isomer, unassigned) [Example 90a] | 100 to 250
Cn1nc(C2CC2)cc1S(=O)(=O)N1CCC2(CC1)CC(NC1CCOCC1)C2 [Example 120, 7-((3-cyclopropyl-1-methyl-1H-pyrazol-5-yl)sulfonyl)-N-(tetrahydro-2H-pyran-4-yl)-7-azaspiro[3.5]nonan-2-amine] | < 100
O=S(=O)(c1cc2cccnc2cc1F)N1CCC2(CCC(N3CC4(COC4)C3)C2)CC1 (centres unmarked) [Example 102, 6-(8-((7-fluoroquinolin-6-yl)sulfonyl)-8-azaspiro[4.5]decan-2-yl)-2-oxa-6-azaspiro[3.3]heptane] | 100 to 250
O=S(=O)(c1cc(F)cc(F)c1)N1CCC2(CC1)C[C@H](N1CC3(COC3)C1)CO2 (single isomer, unassigned) [Example 119a] | < 100
N#Cc1ccc(F)c(S(=O)(=O)N2CCC3(CC2)CC(N2CCCCC2)CO3)c1 (centres unmarked) [Example 47, 4-Fluoro-3-((3-(piperidin-1-yl)-1-oxa-8-azaspiro[4.5]decan-8-yl)sulfonyl)benzonitrile] | 100 to 250
Cc1cc(C(F)(F)F)ccc1S(=O)(=O)N1CCC2(CC1)CC(N1CCOCC1)CO2 (centres unmarked) [Example 17, 8-((2-Methyl-4-(trifluoromethyl)phenyl)sulfonyl)-3-morpholino-1-oxa-8-azaspiro[4.5]decane] | 250 to 1500
Cc1ccc(C#N)cc1S(=O)(=O)N1CCC2(CC1)C[C@H](N1CCOCC1)CO2 (single isomer, unassigned) [Example 15b] | 250 to 1500

Compound | IC50 [nM]
Cc1nc(C(F)(F)F)ccc1S(=O)(=O)N1CCC2(CC1)CC(NC1CC3(COC3)C1)CO2 (centres unmarked) [Example 137, 8-((2-methyl-6-(trifluoromethyl)pyridin-3-yl)sulfonyl)-N-(2-oxaspiro[3.3]heptan-6-yl)-1-oxa-8-azaspiro[4.5]decan-3-amine] | 250 to 1500
O=S(=O)(c1cc(C(F)F)nn1C1CC1)N1CCC2(CC1)CC(N1CC3(COC3)C1)C2 [Example 123, 6-(7-((1-cyclopropyl-3-(difluoromethyl)-1H-pyrazol-5-yl)sulfonyl)-7-azaspiro[3.5]nonan-2-yl)-2-oxa-6-azaspiro[3.3]heptane] | < 100
O=S(=O)(c1ccc2c(c1)OCCO2)N1CCC2(CCC(N3CC4(COC4)C3)C2)CC1 (centres unmarked) [Example 107] | < 100
N#Cc1cc(F)cc(S(=O)(=O)N2CCC3(CCC(N4C[C@H]5C[C@@H]4CO5)C3)CC2)c1 (stereo partly drawn) [Example 97, 3-((2-((1R,4R)-2-oxa-5-azabicyclo[2.2.1]heptan-5-yl)-8-azaspiro[4.5]decan-8-yl)sulfonyl)-5-fluorobenzonitrile] | 100 to 250
Cn1nc2c(c1S(=O)(=O)N1CCC3(CCC(N4CCOCC4)C3)CC1)COCC2 (centres unmarked) [Example 24, 2-Methyl-3-((2-morpholino-8-azaspiro[4.5]decan-8-yl)sulfonyl)-2,4,6,7-tetrahydropyrano[4,3-c]pyrazole] | 250 to 1500
COc1ccc(S(=O)(=O)N2CCC3(CCC(N4CC5(COC5)C4)C3)CC2)cn1 (centres unmarked) [Example 110] | 100 to 250
N#Cc1ccc(S(=O)(=O)N2CCC3(CCC(N4CC5(COC5)C4)C3)CC2)c(Cl)c1 (centres unmarked) [Example 126, 4-((2-(2-oxa-6-azaspiro[3.3]heptan-6-yl)-8-azaspiro[4.5]decan-8-yl)sulfonyl)-3-chlorobenzonitrile] | 100 to 250
N#Cc1cc(S(=O)(=O)N2CCC3(CCC(N4CC5(COC5)C4)C3)CC2)ccc1F (centres unmarked) [Example 127, 5-((2-(2-oxa-6-azaspiro[3.3]heptan-6-yl)-8-azaspiro[4.5]decan-8-yl)sulfonyl)-2-fluorobenzonitrile] | 250 to 1500
N#Cc1cccc(S(=O)(=O)N2CCC3(CCC(N4CC5(COC5)C4)C3)CC2)c1 (centres unmarked) [Example 11] | 100 to 250
Cc1ccc(S(=O)(=O)N2CCC3(CC2)CC(N2CC(O)C2)CO3)c(Cl)c1 (centres unmarked) [Example 52, 1-(8-((2-Chloro-4-methylphenyl)sulfonyl)-1-oxa-8-azaspiro[4.5]decan-3-yl)azetidin-3-ol] | 100 to 250
COc1ncc(Cl)cc1S(=O)(=O)N1CCC2(CC1)CC(N1CC3(COC3)C1)CO2 (centres unmarked) [Example 62, 8-((5-Chloro-2-methoxypyridin-3-yl)sulfonyl)-3-(2-oxa-6-azaspiro[3.3]heptan-6-yl)-1-oxa-8-azaspiro[4.5]decane] | 250 to 1500
Cc1cc(OC(F)(F)F)ccc1S(=O)(=O)N1CCC2(CC1)CC(N1CCOCC1)CO2 (centres unmarked) [Example 54, 8-((2-Methyl-4-(trifluoromethoxy)phenyl)sulfonyl)-3-morpholino-1-oxa-8-azaspiro[4.5]decane] | 250 to 1500
COCCN(C)C1CCC2(CCN(S(=O)(=O)c3ccc(OC)nc3C)CC2)C1 (centres unmarked) [Example 100, 8-((6-methoxy-2-methylpyridin-3-yl)sulfonyl)-N-(2-methoxyethyl)-N-methyl-8-azaspiro[4.5]decan-2-amine] | < 100
O=S(=O)(c1cc(F)cc(F)c1)N1CCC2(CC1)C[C@@H](N1CC3(COC3)C1)CO2 (single isomer, unassigned) [Example 119b] | 100 to 250
COc1ncc(S(=O)(=O)N2CCC3(CCC(N4CC5(COC5)C4)C3)CC2)cc1Cl (centres unmarked) [Example 106] | < 100
COc1cc(S(=O)(=O)N2CCC3(CC2)CC(N2CC4(COC4)C2)CO3)c(F)cn1 (centres unmarked) [Example 115] | 250 to 1500
O=S(=O)(c1ccc(OC(F)F)cc1)N1CCC2(CC1)CC(N1CCCCC1)CO2 (centres unmarked) [Example 14, 8-((4-(Difluoromethoxy)phenyl)sulfonyl)-3-(piperidin-1-yl)-1-oxa-8-azaspiro[4.5]decane] | 250 to 1500
Cc1cc(S(=O)(=O)N2CCC3(CC2)C[C@H](N2CC[C@@]4(CCOC4)C2)CO3)n(C)n1 (single isomer, unassigned) [Example 72a] | 100 to 250
O=S(=O)(c1ccc(OC(F)F)cc1)N1CCC2(CC1)CC(N1CCC3(CCOC3)C1)CO2 (centres unmarked) [Example 70, 8-((4-(Difluoromethoxy)phenyl)sulfonyl)-3-(2-oxa-7-azaspiro[4.4]nonan-7-yl)-1-oxa-8-azaspiro[4.5]decane] | 250 to 1500

Reference: patent US20250152574A1 (BIOGEN MA INC., priority 2022, published 2025)
